# Test results published in US7087575B2, “Treating the effect of nicotine” (Mayo Foundation for Medical Education and Research, priority 2002, dated 2006).
# Tests used:
# rats = experiment: Nicotine sensitization, weekly treatment for six weeks, locomotor activity; format: in vivo, rat
# Description: (§1) Animals and treatment protocol: Male Sprague-Dawley rats weighing 200–250 g were housed in a temperature-controlled room with free access to food and water under artificial 12 hour light/dark cycle. All tests were conducted during the light cycle. The animals received an intraperitoneal (i.p.) injection of either NT69L (1 mg/kg) or an equivalent volume (100 μl) of saline. Thirty minutes after the first injection, the rats received subcutaneous (s.c.) injections of saline or nicotine (0.35 mg/kg). These injections were repeated once a day for 15 days. On days 1 and 15, rats were placed in a Plexiglass Opto-Varimax Minor motility chamber (Columbus Instruments, Columbus, Ohio) and allowed to acclimate for one hour. Baseline activity was recorded for 30 minutes for each rat. The rats then were injected with either saline or NT69L and replaced in the chamber. After 30 minutes, each rat was injected with either saline or nicotine and returned to the chamber. Activity was recorded for 60 minutes. After testing for locomotor activity on day 15, animals were sacrificed. Brain sections were dissected on ice and maintained on dry ice until they were frozen at −80° C., at which temperature they were stored until being assayed. [^3H] cytisine binding: Nicotinic receptor binding sites in membrane homogenates of frozen tissue were measured using [^3H] cytisine according to the method of Pabreza et al. [(1991) Mol. Pharmacol. 39:9–12]. Frozen tissue was resuspended in 50 mM Tris-HCl buffer (pH 7.4), homogenized with a Brinkmann Polytron (setting 6), and washed twice in fresh Tris buffer by centrifugation at 35000×g. The resulting pellets were resuspended in buffer. Aliquots of homogenates were added to tubes containing [^3H] cytisine in the presence or absence of 100 μM nicotine and incubated in a final volume of 250 μl for 75 minutes at 4° C. The binding reactions were terminated by filtration through GF/B filter paper that was mounted on a Brandel cell harvester. Filters were presoaked in 0.5% polyethylenimine to reduce binding of radioligand to the filter. The filters were washed 3 times with cold 0.9% NaCl and counted in a scintillation counter. The data were analyzed using the PC version of the ligand software program. Specific binding was defined as the difference between binding in the presence and absence of 100 μM nicotine.
# For a longer term study of nicotine sensitization, rats were divided into seven groups that were treated once a week for six weeks with saline or NT69L followed by a challenge with saline or 0.35 mg/kg nicotine. These experiments allowed examination of both the initiation and expression phases of sensitization. Group 1 received saline/saline each week. Group 2 received saline/saline for the first five weekly treatments, and saline/nicotine in the sixth week. Group 3 received saline/nicotine each week. Group 4 received NT69L/saline each week. Group 5 received NT69L/nicotine each week. Group 6 received NT69L/nicotine for the first five weekly treatments, and saline/nicotine in the sixth week. Group 7 received saline/nicotine for the first five weekly treatments, and NT69L/nicotine in the sixth week. Locomotor activity was measured after each weekly treatment, as described in Example 1.
# dopamine D2 receptor = experiment: Dopamine D2 receptor binding assay ([3H] raclopride) in striatum after in vivo treatment; parameters: species or system rat
# Description: Dopamine D2 receptor binding assay: Homogenized brain tissue was assayed for dopamine D2 receptor binding by the method of Bowden et al. [(1997) Brain Res. 752:227–233]. Briefly, brain tissue was homogenized in buffer (50 mM Tris-HCl, 5 mM KCl and 120 mM NaCl, pH 7.5) and centrifuged at 26,000×g for 10 minutes at 4° C. Pellets were resuspended in buffer to 1 mg/10 μl and immediately used for binding. Aliquots of […] tissue homogenates were added to 25 PI [^3H] raclopride and 25 μl buffer (for total binding) or 25 μl of […] sulipride (for nonspecific binding) in a total volume of 250 μl, and incubated at room temperature for 90 minutes. Membrane-bound radioactivity was recovered by filtration under vacuum through Whatman GF/B filters using a Brandel cell harvester. Filters were washed with ice-cold PBS and radioactivity was determined by liquid scintillation counting. Protein levels were quantified using the Micro BCA assay (Pierce, Rockford, Ill.).
# [1] = system: dopamine and its metabolites; experiment: Dopamine and metabolites in striatum and PFC by HPLC-EC after in vivo treatment; parameters: species or system rat
# Description: Striatal dopamine: Brain dopamine levels were analyzed using high performance liquid chromatography with electrochemical detection (HPLC-EC, ESA, Inc., Chemsford, Mass.), according to previously described procedures (Kilts et al. (1981) J. Chromatogr. 225:347–357; and Krstulovic (1982) J. Chromatogr. 229:1–34). Rats were sacrificed by decapitation, brains were removed, and the striatal tissue was weighed and homogenized in 10 volumes of ice-cold 0.1 N perchloric acid containing 10 mM EDTA. Tissue homogenates were centrifuged at 26,000×g for 10 minutes at 4° C. A 20 μl aliquot of the diluted supernatant was injected onto an HPLC system with an MD-150/RP-C18 column (ESA). The mobile phase contained 10% acetonitrile with 75 mM sodium dihydrogen phosphate, 1.7 mM 1-octane sulfonic acid sodium salt, 0.01% triethylamine, and 25 μM EDTA, pH 3.0. The flow rate was maintained at 0.5 ml/minute. The detector potentials were set at: 350 mV; E1:−175 mV and E2:250 mV. The concentration of dopamine in each sample was quantified by comparison of area under curve (AUC) between samples and external standards run on the same day.
# Sprague Dawley rats were treated as described above. Animals were sacrificed on day 15 after being tested for locomotor activity. Striatal and PFC tissues were harvested on ice and frozen at −80° C. until being assayed for dopamine metabolism as detailed in Example 1.
# norepinephrine = experiment: Norepinephrine levels in brain tissue after in vivo treatment; parameters: species or system rat
# Description: Sprague Dawley rats were treated as described above. Animals were sacrificed on day 15 after being tested for locomotor activity. PFC sections were harvested on ice and frozen at −80° C. until being assayed for norepinephrine levels.
# Sprague Dawley rats = experiment: Nicotine-induced locomotor activity, daily treatment for 15 days; format: in vivo, rat
# Description: as §1
# Sprague Dawley rats were divided into seven groups and injected daily for 14 days with the treatment listed outside the parentheses under each pair of columns in FIG. 1. On day 15, the rats were injected with the treatment listed inside the parentheses under each pair of columns. Locomotor activity was recorded on days 1 and 15. Rats were placed in a motility chamber for one hour for acclimation. A 30 minute baseline was recorded for each rat. The rats were injected with either saline or NT69L and placed in the chamber for 30 minutes. Each rat was then removed from the chamber, injected with either nicotine or saline, and returned to the chamber. Activity was recorded for 60 minutes, and is shown in counts per 10 minute interval.
# [2] = system: Nicotinic receptor binding sites; experiment: [3H] cytisine binding in brain membrane homogenates after in vivo treatment; parameters: species or system rat; details: for increase in cytisine binding in the VTA: vs saline control, only chronic injection of NT69L significant (P<0.05)
# Description: as §1
# Sprague Dawley rats were maintained and treated as described above. Animals were sacrificed on day 15 after being tested for locomotor activity. PFC and VTA sections were harvested on ice and frozen at −80° C until being assayed for cytisine binding as described in Example 1.
molecule,measurement,setting,value
N-methyl-Arg-Lys-Pro-L-neo-Trp-tert-Leu-Leu [NT69L],effect on nicotine-induced hyperactivity,rats; NT69L before nicotine challenge each week (group 5),largely prevented the hyperactivity
same,activity after NT69L in the sixth week,"rats; five weeks nicotine without NT69L, then NT69L/nicotine in week six (group 7)",significant decrease in activity
same,initiation and expression of nicotine sensitization,rats; weekly treatment for six weeks,effectively blocked
same,dopamine (D2) receptor binding in striatum across nicotine and NT69L treatment groups,dopamine D2 receptor,No difference
same,lowering of the nicotine-induced increase in dopamine,"[1]; PFC, injection of NT69L for 15 days",62%
same,lowering of the nicotine-induced increase in dopamine,"[1]; PFC, pretreating with NT69L before nicotine injection on day 15",28%
same,effect on dopamine levels in the striatum,[1]; pretreatment with NT69L,did not significantly affect
same,reduction in norepinephrine levels,"norepinephrine; PFC, daily injections of NT69L, single injection of nicotine",40%
same,norepinephrine in the striatum between treatment groups,norepinephrine; striatum,No significant differences
same,reduction of nicotine-induced hyperactivity,"Sprague Dawley rats; acute injection of NT69L 1 mg/kg i.p. on day 1, 30 minutes prior to nicotine, P<0.001",24%
same,reduction of the magnitude of locomotor sensitization,Sprague Dawley rats; daily injection of NT69L,24%
same,locomotor activity 69/sal vs sal/sal groups (sedation),"Sprague Dawley rats; day 1, NT69L 1 mg/kg i.p. without nicotine",no significant difference
same,activity compared with saline after fifteen days of treatment,"Sprague Dawley rats; sal/nic(sal/nic) vs. 69/nic(69/nic), P<0.05",statistically significant reduction in activity
same,sensitized nicotine-induced activity after NT69L,"Sprague Dawley rats; single injection of NT69L 30 minutes prior to nicotine on the fifteenth day of nicotine administration, P<0.001",10 % of control
same,reduction of cytisine binding caused by acute nicotine injection,"[2]; PFC, NT69L daily for 15 days, acute, but not chronic, nicotine",62%
same,reduction of the increase in cytisine binding caused by 15 daily injections of nicotine,"[2]; PFC, acute injection of NT69L prior to nicotine on day fifteen",65%
same,increase in cytisine binding in the VTA,[2],35%
CN1CCCC1c1cccnc1 (stereo not shown) [nicotine],locomotor activity after nicotine challenge without NT69L,rats; nicotine 0.35 mg/kg in the sixth week only (group 2),resulted in hyperactivity
same,locomotor activity after nicotine challenge without NT69L,rats; nicotine challenge each week (group 3),resulted in increased activity
same,levels of dopamine and its metabolites as compared to saline control,"[1]; PFC, fifteen daily injections of nicotine",232%
same,increase in levels of dopamine and its metabolites,"[1]; PFC, single injection of nicotine, P<0.05",400%
same,increase in striatal dopamine levels,"[1]; striatum, single injection of nicotine vs sal/sal(sal/sal), P<0.05",192%
same,increase of norepinephrine levels in the PFC,"norepinephrine; acute and chronic treatment with nicotine vs saline control, P<0.05",213–300%
same,increase in peak activity (sensitization),"Sprague Dawley rats; daily nicotine injections, day 1 vs. day 15",> 60%
same,peak level of locomotor activity,"Sprague Dawley rats; single injection of nicotine 0.35 mg/kg s.c. vs control group sal/sal(sal/sal), P<0.001",significantly increased
same,increase of cytisine binding in prefrontal cortex,"[2]; fifteen daily injections of nicotine vs saline control, P<0.05",62%
same,cytisine binding in the PFC,[2]; single nicotine injection on day 15 vs sal/sal(sal/sal),"tended to increase cytisine binding in the PFC, but not to a significant level"
same,increase in cytisine binding in the VTA,[2],35%
